Test results: patent publication US6011000A, “Compositions for the treatment of blood disorders” (priority 1995, dated 2000)

Legend:
[1] = system: hemoglobin polymerization; details: artificially deoxygenated blood; cited from earlier work
[2] = system: erythroid cells (peripheral blood); test: Erythroid cell viability by fluorescent staining (Calcein-AM), FIG. 2; format: cell-based, human; details: vs untreated controls
Procedure: FIG. 2 Peripheral blood cell viability after incubation with arginine butyrate, dihydrocinnamic acid, phenoxyacetic acid and butyric acid ethyl ester.
Compositions were tested for the ability to directly stimulate erythroid cell growth. Cell growth stimulation is a useful property for an agent to be used to treat anemias and distinguishes such agents from the cytotoxic drugs currently being tested for treatment of hemoglobinopathies. Cell viability analyses were performed using fluorescent staining to detect living cells. Cells were in log phase of growth in 6-well dishes when used in proliferation assays. For enumeration of living cells, wells were washed once with medium to remove nonadherent or dead cells. Remaining live cells were labeled with 2 μM 2',7'-bis-(carboxyethyl)-5-(and 6)-carboxy-fluorescein acetoxy-methyl ester (Calcein-AM) (Molecular Probes; Eugene, Oreg.) for 20 minutes at 37° C. and washed once. Fluorescence intensity of live cells was read on a CytoFluor 2300 Fluorescence Plate Scanner (Millipore; Bedford, Mass.) at excitation and emission wavelengths of 485 and 530 nm, respectively. The fluorescence intensity of a well was proportional to the number of living cells in the well. Background fluorescence was measured separately for each plate and subtracted from all readings. Each experiment was performed in triplicate or quadruplicate. The standard deviation (SD) of repetitive readings was less than 30% of the mean. Results are depicted in FIG. 2.

[3] = system: HSS-II region of the locus control region (LCR); test: In vivo footprinting of HSS-II; set-up: species or system human
Procedure: (§1) Erythroid cell-rich fractions were prepared from patients' peripheral blood or bone marrow before and during treatment, and were in vivo methylated using DMS. Ligation-mediated polymerase chain reaction (LM-PCR) was performed (J. L. Mueller et al., Sci. 246:780-86, 1989). Briefly, 3-7 μg of DNA was suspended in 15 μl of solution A (40 mM Tris-HCl, pH 7.7, 50 mM NaCl) containing […] of primer. First-strand synthesis was performed by adding 7.5 μl of solution B (20 mM MgCl2, 20 mM DTT, 60 μM dNTP) and 1.5 μl of 1:4 diluted Sequenase version 2.0 (United States Biochemical; Cleveland, Ohio) with TE and incubating at 50° C. for 10 minutes. The reaction was quenched by heating at 68° C. for 10 minutes, adding 6 μl of 310 mM Tris-HCl, pH 7.7, and subsequently extracting with phenol/chloroform/isoamyl alcohol (25:24:1) and with ether. […] All of the footprints were analyzed two or more times to ensure reproducibility.
Several lines of evidence obtained from DNA transfection and transgenic experiments have corroborated the functional importance of HSS-II of the LCR in regulating β-like globin gene expression. […] In view of these observations, the patterns of in vivo footprints of HSS-II in erythroid cell preparations that were obtained from pre-treatment and post-treatment blood samples were analyzed. […]

γ-globin gene promoter = test: In vivo footprinting of the γ-globin promoter; set-up: species or system human
Procedure: To determine whether this increase was due to the transcriptional modulation of the γ-globin genes and, if so, to examine whether protein-DNA interactions of regulatory sequences for γ-globin gene expression have been changed, in vivo footprinting analysis of the γ-globin gene promoter and HSS-II region of the locus control region (LCR) were performed. […] Compared to conventional in vitro footprinting methods, which are ordinarily employed to analyze protein-DNA interactions for promoter regions and fail to disclose tissue-specific binding of nuclear proteins to cis-acting elements, in vivo footprinting technique is able to provide bona fide information on transcription factors binding to cis-acting elements that reflects in vivo situations.
as §1
In the γ-globin gene promoter, a DNA fragment extending up to -200 bp relative to the transcription start site is sufficient to direct efficient transcription of the γ-globin genes (K. T. McDonagh et al., J. Biol. Chem. 266:11965-74, 1991; M. J. Urich Blood 75:990-99, 1990). […] Erythroblasts from a patient with sickle cell anemia, before and after butyrate treatment were analyzed. […]

| Structure (SMILES) | inhibition of polymerization [1] | erythroid cell growth and proliferation ([2]; 0.5 mM) | footprints over HSS-II ([3]; erythroblasts of treated sickle cell patient (FIG. 15)) | region of new protection upstream of the GATA-1 binding sequence ([3]; treated patients (FIG. 15)) | footprints in the γ-globin promoter (γ-globin gene promoter; erythroblasts of a sickle cell anemia patient, post-treatment (FIG. 13)) | induction of transcription factors interacting with the γ-globin gene promoter (γ-globin gene promoter; sickle cell anemia patient) | degree of protection on G residues in FRE-γ1 (γ-globin gene promoter; β-thalassemia and sickle cell anemia patients (FIG. 14)) | erythroid cell growth and proliferation ([2]; 0.2 mM) |
| --- | --- | --- | --- | --- | --- | --- | --- | --- |
| O=C(O)COc1ccccc1 [PAA, Phenoxyacetic acid] | inhibit polymerization | either had no effect or stimulated erythroid cell growth and proliferation |  |  |  |  |  |  |
| CCCC(=O)O [AB, arginine butyrate] |  | inhibited proliferation | novel in vivo footprints that were not seen in a pre-treatment sample became apparent | about 40 bp | four major footprints in the fetal response elements | induces multiple transcription factors which interact with the γ-globin gene promoter, resulting in activation | consistently increased | inhibited proliferation |
